Converted amounts (≈) assume the structure as drawn. Like-named read-outs stand apart in the source and are kept apart here.
Legend:
[1] = tested on: E. coli 77 CMY-2-positive; test: combination disc test CDT-AmpC; format: cell-based; details: Escherichia coli, read-out: Diameter of inhibition zone, CAZ-30 disc with agent
C. tropicalis IBA 171 = test: antifungal activity (disc-diffusion, MIC, MFC); format: cell-based; details: Candida tropicalis, IBA171; for zone of inhibition at 0.4 mg/disc: 0.4 mg per disc, 9 mm disc (fluconazole 0.025 mg, 6 mm disc), - no zone, read-out: Diameter of inhibition zone; for MIC: fluconazole by Etest
In short: (§1)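 Testing of direct antimicrobial action relied on CLSI and EUCAST protocols, namely disc diffusion, MIC and cidal-concentration determinations. Each disc carried 0.4 mg of test agent.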

C. tropicalis ATCC 750 = test: antifungal activity (disc-diffusion, MIC, MFC); format: cell-based; details: Candida tropicalis, ATCC750; for zone of inhibition at 0.4 mg/disc: 0.4 mg per disc, 9 mm disc (fluconazole 0.025 mg, 6 mm disc), - no zone, read-out: Diameter of inhibition zone; for MIC: fluconazole by Etest
In short: as §1

C. albicans ATCC 90028 = test: antifungal activity (disc-diffusion, MIC, MFC); format: cell-based; details: Candida albicans, ATCC90028; for zone of inhibition at 0.4 mg/disc: 0.4 mg per disc, 9 mm disc (fluconazole 0.025 mg, 6 mm disc), - no zone, read-out: Diameter of inhibition zone; for MIC: fluconazole by Etest
In short: as §1

S. cerevisiae ATCC 9763 = test: antifungal activity (disc-diffusion, MIC, MFC); format: cell-based; details: Saccharomyces cerevisiae, ATCC9763; for zone of inhibition at 0.4 mg/disc: 0.4 mg per disc, 9 mm disc (fluconazole 0.025 mg, 6 mm disc), - no zone, read-out: Diameter of inhibition zone; for MIC: fluconazole by Etest
In short: as §1

[2] = tested on: C. guilliermondii IBA 155; test: antifungal activity (disc-diffusion, MIC, MFC); format: cell-based, Candida guilliermondii; details: Meyerozyma guilliermondii, IBA155; for zone of inhibition at 0.4 mg/disc: 0.4 mg per disc, 9 mm disc (fluconazole 0.025 mg, 6 mm disc), - no zone, read-out: Diameter of inhibition zone; for MIC: fluconazole by Etest
In short: as §1

[3] = tested on: K. pneumoniae ATCC BAA 1705 KPC-2-positive; test: combination disc test CDT-KPC; format: cell-based; details: Klebsiella pneumoniae
[4] = tested on: P. aeruginosa MUW 700 cAmpC-positive; test: combination disc test CDT-AmpC; format: cell-based; details: Pseudomonas aeruginosa, read-out: Diameter of inhibition zone, CAZ-30 disc with agent
[5] = MTT-based viability assay; format: cell-based; details: human, 72 h; for viability at 72 h, 12.5 mg/L / viability at 72 h, 25 mg/L / viability at 72 h, 50 mg/L: read-out: Viability of MRC-5 cells (% of viable cells ± SD); for viability at 72 h: 12.5, 25 and 50 mg/L
In short: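 Percent viable cells relative to control, measured in triplicate by MTT read-out at 570 nm. Cells: MRC-5 human fibroblasts cultured at 37 °C, 5% CO2 in MEME plus 10% FBS.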

[6] = tested on: P. aeruginosa MUW 700 AmpC(+); test: MIC of tested agent alone, microdilution; format: cell-based
Method: (§2) To examine the ability of tested agents to inhibit various carbapenemases and AmpC-enzymes, their synergy with antibiotics against β-lactamase-producing strains was assessed by checkerboard microdilution assay, with slight modification. Checkerboards were prepared in microtiter plates, with seven two-fold dilutions of β-lactams (1–64 mg/L) in the rows and three two-fold dilutions of tested agents and PBA (4–16 mg/L) in the columns. Tested agents’ concentrations were limited to the concentrations at which the newest commercially available BLIs (vaborbactam, relebactam, and avibactam) are used in susceptibility testing. Plates were inoculated and incubated as in the MIC microdilution assay. Parallel, MICs of tested agents and PBA alone were determined by the microdilution assay. Following the incubation, antibiotic MICs in the presence of each agent’s concentration were determined. Moreover, for the first well without growth found in each checkerboard row and column along the growth/non-growth interface, the fractional inhibitory concentration index (FICI) was calculated using the formula below:FICI = [(MIC of antibiotic in combination)/(MIC of antibiotic alone)] + [(MIC of the tested agent in combination)/(MIC of tested agent alone)].

[7] = tested on: K. pneumoniae ATCC BAA-1705 KPC-2(+); test: MIC of tested agent alone, microdilution; format: cell-based
Method: as §2

[8] = tested on: K. pneumoniae 83 KPC-3(+), CTX-M-3(+); test: MIC of tested agent alone, microdilution; format: cell-based
Method: as §2

[9] = tested on: K. pneumoniae 81 KPC-3(+); test: MIC of tested agent alone, microdilution; format: cell-based
Method: as §2

E. coli 77 CMY-2(+) = test: MIC of tested agent alone, microdilution; format: cell-based
Method: as §2

E. coli 76 KPC-2(+) = test: MIC of tested agent alone, microdilution; format: cell-based
Method: as §2

[10] = tested on: C. parapsilosis ATCC 22019; test: antifungal activity (disc-diffusion, MIC, MFC); format: cell-based, Candida parapsilosis; details: Lodderomyces parapsilosis, ATCC22019; for zone of inhibition at 0.4 mg/disc: 0.4 mg per disc, 9 mm disc (fluconazole 0.025 mg, 6 mm disc), - no zone, read-out: Diameter of inhibition zone; for MIC: fluconazole by Etest
In short: as §1

C. krusei ATCC 6258 = test: antifungal activity (disc-diffusion, MIC, MFC); format: cell-based, Candida krusei; details: Pichia kudriavzevii, ATCC6258; for zone of inhibition at 0.4 mg/disc: 0.4 mg per disc, 9 mm disc (fluconazole 0.025 mg, 6 mm disc), - no zone, read-out: Diameter of inhibition zone; for MIC: fluconazole by Etest
In short: as §1

[11] = tested on: P. aeruginosa MUW 700 cAmpC-positive; test: checkerboard microdilution, antibiotic plus tested agent; format: cell-based, Pseudomonas aeruginosa
Method: as §2
For calculations, all off-scale MICs were converted to the next-highest doubling concentration. Subsequently, both the average and the lowest FICI were interpreted. The interpretation was as follows: FICI ≤ 0.5, synergy; 0.5 < FICI ≤ 4, indifference and FICI > 4, antagonism. Primarily, examined combinations consisted of meropenem (Pol-Aura, Morag, Poland) plus tested agents against carbapenemases-producing strains and ceftazidime (Pol-Aura, Morag, Poland) plus tested agents against AmpC-producing strains. For agents that reduced meropenem MIC at least 4-fold for at least two tested strains, similar assays were performed with imipenem (Pol-Aura, Morag, Poland) and ertapenem (Pol-Aura, Morag, Poland).

[12] = Pseudomonas aeruginosa; read-out: MIC of agent alone
[13] = Klebsiella pneumoniae, ATCCBAA1705; read-out: MIC of agent alone
[14] = Klebsiella pneumoniae; read-out: MIC of agent alone
[15] = Escherichia coli; read-out: MIC of agent alone
[16] = BAA1705, agent 0.3 mg per disc, read-out: Diameter of inhibition zone, MEM-10 disc with agent
[17] = Klebsiella pneumoniae, read-out: MIC of agent alone
[18] = Escherichia coli, read-out: MIC of agent alone

SMILES	MIC (C. tropicalis IBA 171) [µg/mL]	zone of inhibition at 0.4 mg/disc (C. tropicalis ATCC 750) [mm]	MIC (C. tropicalis ATCC 750) [µg/mL]	zone of inhibition at 0.4 mg/disc (C. albicans ATCC 90028) [mm]	MIC (C. albicans ATCC 90028) [µg/mL]	zone of inhibition at 0.4 mg/disc (S. cerevisiae ATCC 9763) [mm]	MIC (S. cerevisiae ATCC 9763) [µg/mL]	zone of inhibition at 0.4 mg/disc [2] [mm]	MIC [2] [µg/mL]	viability at 72 h, 12.5 mg/L ([5]; MRC-5 human fibroblasts) [%]	viability at 72 h, 25 mg/L ([5]; MRC-5 human fibroblasts) [%]	viability at 72 h, 50 mg/L ([5]; MRC-5 human fibroblasts) [%]	MIC [6, 12] [µg/mL]	MIC [7, 13] [µg/mL]	MIC [8, 14] [µg/mL]	MIC [9, 14] [µg/mL]	MIC (E. coli 77 CMY-2(+); [15]) [µg/mL]	MIC (E. coli 76 KPC-2(+); [15]) [µg/mL]	MIC [10] [µg/mL]	MIC (C. krusei ATCC 6258) [µg/mL]	further results
OB(O)c1cc(Br)c(B(O)O)cc1Br [1i]	25 (≈ 77.3 µM)	25	50 (≈ 155 µM)	31	12.5 (≈ 38.6 µM)	24	50 (≈ 155 µM)	34	25 (≈ 77.3 µM)	122	114 ± 4.8	101.4 ± 0.9	> 400	200	200	200	100	100	50 (≈ 155 µM)	50 (≈ 155 µM)	zone of inhibition at 100 µg/disc ([1]; agent 0.1 mg per disc): 16 mm; zone of inhibition at 0.4 mg/disc (C. tropicalis IBA 171): 29 mm; zone of inhibition at 100 µg/disc ([3]; BAA1705, agent 0.1 mg per disc, read-out: Diameter of inhibition zone, MEM-10 disc with agent): 6 mm; zone of inhibition at 100 µg/disc ([4]; agent 0.1 mg per disc): 16 mm; zone of inhibition at 0.4 mg/disc [10]: 24 mm; zone of inhibition at 0.4 mg/disc (C. krusei ATCC 6258): 22 mm
OB(O)c1ccccc1S [7c, 2-mercaptophenylboronic acid]	12.5 (≈ 81.2 µM)	20	50 (≈ 325 µM)	33	50 (≈ 325 µM)	34	12.5 (≈ 81.2 µM)	40	25 (≈ 162 µM)	56.4 ± 3	6.6 ± 5.1	0	> 200	> 200	> 200	> 200	> 200	> 200	50 (≈ 325 µM)	50 (≈ 325 µM)	zone of inhibition at 300 µg/disc ([1]; agent 0.3 mg per disc): 16 mm; MFC (C. tropicalis IBA 171): 100 µg/mL (≈ 649 µM); MFC (C. tropicalis ATCC 750): 200 µg/mL (≈ 1300 µM); MFC (C. albicans ATCC 90028): 200 µg/mL (≈ 1300 µM); MFC (S. cerevisiae ATCC 9763): 25 µg/mL (≈ 162 µM); MFC [2]: 200 µg/mL (≈ 1300 µM); zone of inhibition at 300 µg/disc [3, 16]: 13 mm; zone of inhibition at 300 µg/disc ([4]; agent 0.3 mg per disc): 11 mm; viability at 72 h ([5]; MRC-5 human fibroblasts): 0 to 56.4%; zone of inhibition at 0.4 mg/disc [10]: 29 mm; zone of inhibition at 0.4 mg/disc (C. krusei ATCC 6258): 16 mm
OB(O)c1ccc(F)cc1B(O)O [3c]	50 (≈ 272 µM)	–	50 (≈ 272 µM)	–	100 (≈ 544 µM)	–	100 (≈ 544 µM)	–	> 400	97.1 ± 6.9	106 ± 4.5	82.3 ± 12.9	> 400	> 400	> 400	> 400	> 400	> 400	100 (≈ 544 µM)	200 (≈ 1090 µM)	zone of inhibition at 300 µg/disc ([1]; agent 0.3 mg per disc): 20 mm; zone of inhibition at 300 µg/disc [3, 16]: 12 mm; zone of inhibition at 300 µg/disc ([4]; agent 0.3 mg per disc): 20 mm
OB(O)c1cc(C(F)(F)F)cc(B(O)O)c1F [2e]	400 (≈ 1590 µM)	–	> 400	–	400 (≈ 1590 µM)	–	> 400	14	> 400	96.6 ± 6.4	84.4 ± 4.8	63.1 ± 1.4	> 400	> 400	> 400	> 400	> 400	> 400	400 (≈ 1590 µM)	> 400	zone of inhibition at 300 µg/disc ([1]; agent 0.3 mg per disc): 19 mm; zone of inhibition at 300 µg/disc [3, 16]: 6 mm; zone of inhibition at 300 µg/disc ([4]; agent 0.3 mg per disc): 16 mm
OB(O)c1ccccc1 [PBA, phenylboronic acid, reference compound]	–	–	–	–	–	–	–	–	–	–	–	–	–	–	–	–	–	–	–	–	zone of inhibition at 300 µg/disc [1]: 24 mm; zone of inhibition at 300 µg/disc ([3]; BAA1705, read-out: Diameter of inhibition zone, MEM-10 disc with agent): 21 mm; zone of inhibition at 300 µg/disc [4]: 24 mm; viability at 72 h, 12.5 mg/L [5]: 81.5 ± 3.7%; viability at 72 h, 25 mg/L [5]: 79.1 ± 4.4%; viability at 72 h, 50 mg/L [5]: 58.7 ± 4.3%; MIC ([6]; Pseudomonas aeruginosa, read-out: MIC of agent alone): > 400 µg/mL; MIC ([7]; Klebsiella pneumoniae, ATCCBAA1705, read-out: MIC of agent alone): > 400 µg/mL; MIC [8, 17]: > 400 µg/mL; MIC [9, 17]: > 400 µg/mL; MIC (E. coli 77 CMY-2(+); [18]): > 400 µg/mL; MIC (E. coli 76 KPC-2(+); [18]): > 400 µg/mL; Average FICI with ceftazidime [11]: 0.10; Interpretation of the average FICI with ceftazidime [11]: S (FICI ≤ 0.5, synergy); Interpretation of the lowest FICI with ceftazidime [11]: S (FICI ≤ 0.5, synergy); The lowest FICI with ceftazidime [11]: 0.07
O=Cc1cc(F)ccc1B(O)O [7b]	50 (≈ 298 µM)	21	50 (≈ 298 µM)	31	6.25 (≈ 37.2 µM)	35	6.25 (≈ 37.2 µM)	27	25 (≈ 149 µM)	48.9 ± 3.8	6.4 ± 1.4	0.9 ± 0.7	–	–	–	–	–	–	12.5 (≈ 74.4 µM)	25 (≈ 149 µM)	zone of inhibition at 0.4 mg/disc (C. tropicalis IBA 171): 22 mm; viability at 72 h ([5]; MRC-5 human fibroblasts): 0 to 56.4%; zone of inhibition at 0.4 mg/disc [10]: 17 mm; zone of inhibition at 0.4 mg/disc (C. krusei ATCC 6258): 28 mm
